Activity calls are given as the source filed them. The calls are words filed in the database; no cut-off is given here.
Legend:
[1] = Cytotoxicity against African green monkey Vero cells assessed as cell growth inhibition after 72 hrs by MTT assay; assay type: toxicity, cell-based; settings: African green monkey (Chlorocebus sabaeus)
[2] = tested on: LNCaP; test: Inhibition of HDAC in human LNCAP cells assessed as down regulation of androgen receptor expression after 24 hrs by Western blot analysis; assay type: cell-based
[3] = tested on: LNCaP; test: Induction of cell cycle arrest in human LNCAP cells assessed as accumulation at G2 phase at 2.5 uM after 24 hrs by propidium iodide staining based FACS analysis (reference value: 1.08%); assay type: functional
[4] = tested on: LNCaP; test: Induction of cell cycle arrest in human LNCAP cells assessed as accumulation at greater G2 phase at 2.5 uM after 24 hrs by propidium iodide staining based FACS analysis (reference value: 0.20%); assay type: functional
[5] = biological target: T1, Protein deacetylase HDAC6 (Homo sapiens) (UniProt Q9UBN7); test: Inhibition of HDAC6 in human LNCAP cells assessed as acetylated tubulin accumulation in cytosol after 24 hrs by Western blot analysis; assay type: cell-based
T1 sequence (whole entry): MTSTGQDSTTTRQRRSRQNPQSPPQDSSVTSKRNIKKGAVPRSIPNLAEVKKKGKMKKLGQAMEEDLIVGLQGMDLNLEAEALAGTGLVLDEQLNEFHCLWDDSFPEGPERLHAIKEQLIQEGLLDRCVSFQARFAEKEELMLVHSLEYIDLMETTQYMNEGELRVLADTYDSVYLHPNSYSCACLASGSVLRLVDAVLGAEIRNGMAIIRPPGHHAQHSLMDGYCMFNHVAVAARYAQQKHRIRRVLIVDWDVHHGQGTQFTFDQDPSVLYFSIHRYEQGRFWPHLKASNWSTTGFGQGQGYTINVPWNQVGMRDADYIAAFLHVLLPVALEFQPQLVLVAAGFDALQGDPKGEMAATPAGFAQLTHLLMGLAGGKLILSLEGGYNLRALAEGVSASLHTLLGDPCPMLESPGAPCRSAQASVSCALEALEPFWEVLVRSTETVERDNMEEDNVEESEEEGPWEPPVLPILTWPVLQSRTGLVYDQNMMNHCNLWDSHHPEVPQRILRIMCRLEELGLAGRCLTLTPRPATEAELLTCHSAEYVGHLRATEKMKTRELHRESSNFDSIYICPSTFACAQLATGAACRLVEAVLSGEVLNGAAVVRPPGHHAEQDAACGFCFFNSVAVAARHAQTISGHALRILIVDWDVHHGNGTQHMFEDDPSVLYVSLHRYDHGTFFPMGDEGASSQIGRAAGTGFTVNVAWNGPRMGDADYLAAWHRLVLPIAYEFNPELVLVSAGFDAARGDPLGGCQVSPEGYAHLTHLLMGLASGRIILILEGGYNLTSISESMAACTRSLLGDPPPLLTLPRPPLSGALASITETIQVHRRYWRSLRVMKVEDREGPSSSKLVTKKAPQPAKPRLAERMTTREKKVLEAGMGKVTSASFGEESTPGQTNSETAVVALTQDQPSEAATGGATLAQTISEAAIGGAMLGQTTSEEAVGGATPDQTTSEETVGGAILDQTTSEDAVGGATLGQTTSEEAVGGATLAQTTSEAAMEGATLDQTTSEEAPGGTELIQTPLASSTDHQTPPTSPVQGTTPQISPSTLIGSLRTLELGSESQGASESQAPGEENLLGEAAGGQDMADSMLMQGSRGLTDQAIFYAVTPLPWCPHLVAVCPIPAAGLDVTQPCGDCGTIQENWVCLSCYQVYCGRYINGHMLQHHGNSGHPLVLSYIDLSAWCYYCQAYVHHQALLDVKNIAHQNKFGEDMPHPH

[6] = biological target: T2, Prostaglandin G/H synthase 2 (Homo sapiens, UniProt P35354); test: Inhibition of recombinant human COX2 using arachidonic acid as substrate preincubated for 15 mins followed by substrate addition for 2 mins by Cayman based fluorescence assay
T2 sequence (P35354 whole entry): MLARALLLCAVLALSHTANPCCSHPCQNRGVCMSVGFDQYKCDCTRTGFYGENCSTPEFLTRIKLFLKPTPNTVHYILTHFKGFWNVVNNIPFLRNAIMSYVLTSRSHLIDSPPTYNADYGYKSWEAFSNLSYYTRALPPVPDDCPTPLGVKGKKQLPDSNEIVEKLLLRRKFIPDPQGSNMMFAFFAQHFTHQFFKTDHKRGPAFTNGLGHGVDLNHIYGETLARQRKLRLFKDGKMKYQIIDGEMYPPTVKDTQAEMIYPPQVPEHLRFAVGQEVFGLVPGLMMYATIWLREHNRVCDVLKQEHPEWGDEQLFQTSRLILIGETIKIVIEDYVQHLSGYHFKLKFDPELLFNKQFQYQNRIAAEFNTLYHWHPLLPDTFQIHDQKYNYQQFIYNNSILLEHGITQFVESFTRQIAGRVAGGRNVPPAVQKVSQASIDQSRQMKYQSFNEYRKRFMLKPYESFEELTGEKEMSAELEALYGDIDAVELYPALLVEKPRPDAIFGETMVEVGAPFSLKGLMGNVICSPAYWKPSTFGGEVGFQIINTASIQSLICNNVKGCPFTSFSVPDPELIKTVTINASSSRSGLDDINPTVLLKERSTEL

[7] = tested on: LNCaP; test: Inhibition of HDAC in human LNCAP cells assessed as down regulation of COX2 expression at 2 uM after 24 hrs by Western blot analysis; assay type: cell-based
[8] = Cytotoxicity against human A549 cells assessed as cell growth inhibition after 72 hrs by MTT assay; assay type: functional, cell-based; settings: A549, 72 h
[9] = Cytotoxicity against human HCT116 cells assessed as cell growth inhibition after 72 hrs by MTT assay; assay type: functional, cell-based; settings: HCT-116, 72 h
[10] = biological target: T3, Histone deacetylase 8 (Homo sapiens, UniProt Q9BY41); test: Inhibition of HDAC8 (unknown origin) after 2.5 hrs by SAMDI mass spectroscopic analysis
T3 sequence (Q9BY41 whole entry): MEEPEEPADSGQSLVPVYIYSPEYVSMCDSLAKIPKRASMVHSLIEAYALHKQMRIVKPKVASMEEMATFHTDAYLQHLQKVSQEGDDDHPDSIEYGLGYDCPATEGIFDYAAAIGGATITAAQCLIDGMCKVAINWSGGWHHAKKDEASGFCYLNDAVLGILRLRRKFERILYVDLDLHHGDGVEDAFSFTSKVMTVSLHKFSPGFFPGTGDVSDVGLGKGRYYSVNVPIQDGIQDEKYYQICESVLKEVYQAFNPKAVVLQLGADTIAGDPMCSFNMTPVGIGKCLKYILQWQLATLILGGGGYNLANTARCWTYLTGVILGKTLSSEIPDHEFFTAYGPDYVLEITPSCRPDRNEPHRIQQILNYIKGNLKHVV

[11] = tested on: LNCaP; test: Induction of cell cycle arrest in human LNCAP cells assessed as accumulation at S phase at 2.5 uM after 24 hrs by propidium iodide staining based FACS analysis (reference value: […]); assay type: functional
[12] = biological target: Histone deacetylase 1 (Homo sapiens, UniProt Q13547); test: Inhibition of HDAC1 (unknown origin) after 24 hrs by SAMDI mass spectroscopic analysis
Histone deacetylase 1, sequence (Q13547 whole entry): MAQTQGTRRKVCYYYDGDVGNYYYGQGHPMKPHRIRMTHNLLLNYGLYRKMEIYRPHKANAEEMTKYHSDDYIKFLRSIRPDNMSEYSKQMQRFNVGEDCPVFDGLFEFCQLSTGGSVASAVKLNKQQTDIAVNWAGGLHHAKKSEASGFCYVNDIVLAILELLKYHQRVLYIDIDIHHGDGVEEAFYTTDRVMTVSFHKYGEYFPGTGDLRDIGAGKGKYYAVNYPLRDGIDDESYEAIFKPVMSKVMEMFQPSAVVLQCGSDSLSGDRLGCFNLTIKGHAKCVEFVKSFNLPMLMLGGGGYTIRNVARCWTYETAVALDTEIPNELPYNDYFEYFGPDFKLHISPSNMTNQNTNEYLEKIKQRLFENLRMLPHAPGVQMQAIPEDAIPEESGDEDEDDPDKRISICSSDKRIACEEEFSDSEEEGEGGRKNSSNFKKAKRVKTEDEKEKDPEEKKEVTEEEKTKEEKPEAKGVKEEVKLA

[13] = tested on: LNCaP; test: Inhibition of HDAC in human LNCAP cells assessed as down regulation of COX2 expression at 2 to 10 uM after 24 hrs by Western blot analysis; assay type: cell-based

Row | Compound | IC50 at 72 h [1] | inhibition [2] | Activity [3] | Activity [4] | inhibition [5] | IC50 [6] | inhibition [7] | IC50 [8] | IC50 [9] | IC50 [10] | Activity [11] | IC50 [12] | inhibition [13]
1 | Cc1ccc(-c2cc(C(F)(F)F)nn2-c2ccc(S(=O)(=O)NCCCCCCC(=O)NO)cc2)cc1 | 5530 nM | Dose-dependent effect | 1.4% | 1.67% | Dose-dependent effect | 300 nM | Active | 8000 nM | 3380 nM | 412 nM | 31.7% | 1030 nM | 
2 | COc1ccc2c(c1)c(CC(=O)NCCCCCCC(=O)NO)c(C)n2C(=O)c1ccc(Cl)cc1 |  |  |  | 0.35% | Dose-dependent effect | 330 nM |  |  |  | 109 nM |  | 980 nM | Active

Reference: ChEMBL document CHEMBL3875218, “Bifunctional conjugates with potent inhibitory activity towards cyclooxygenase and histone deacetylase” (Bioorg Med Chem, 2017)
